We go through five compounds from article PMC3726599, “A Metabolically-Stabilized Phosphonate Analog of Lysophosphatidic Acid Attenuates Collagen-Induced Arthritis” (PLoS ONE, 2013).

Series [1] addresses T1, recombinant ATX (Homo sapiens, UniProt Q13822).
T1 construct: purchased SinoBiological Inc (main data); R&D (additional Km values)
Kind of series: Amplex Red activity assay, LPC hydrolysis by recombinant ATX (Echelon). The settings on record: substrate Km, recombinant ATX from Echelon. The class given is biochemical. As to the method: BrP-LPA inhibition was also tested with the more sensitive reagent Amplex Red based on the Amplex™ Red PLD assay kit (Molecular Probes, Interchim, Montluçon, France) originally designed for the measurement of the PLD activity, [49]. All reactions were performed with purified ATX (2 nM) from Echelon at 37°C. The ability of ATX to cleave LPC was detected using a coupled assay that monitors the release of choline using Amplex Red (10 μΜ), choline oxidase (0.2 Units/ml) and horseradish peroxidise (2 Units/ml) The rate of fluorescence increase was measured in a fluorescence plate reader (Tecan Infinite 200 microplate reader from Tecan Trading AG, Switzerland) for up to 80 minutes; the fluorescence increase was linear during that time-frame for all cases. Rates were normalized to control reactions that contained all reaction components except for the test compound.
(§1) The biochemistry of lyso-PLD was assessed by following the kinetics data using a wide panel of different ATX substrates [FS-3, different LPC species (14:0, 16:0, 18:0, 18:1)], three different recombinant ATX proteins (R&D, Sino-Biological and Echelon) and three different ATX activity assays (FS-3, TOOS, Amplex Red). The ATX activity was measured at different substrate concentrations (typically from 1-1000 μM) in order to examine whether ATX follows Michaelis-Menten kinetics. The Michaelis constant (Km) was obtained by fitting the substrate dependence of V (ATX activity) to a rectangular hyperbola using the non-linear regression analysis of the statistical software package Prism 4.0 (GraphPad Software, Inc.). Km and Vmax were evaluated from the rectangular hyperbola curve with the use of GraphPad software.
(§2) For in vitro inhibition measurements, BrP-LPA was dissolved in water as a stock solution (4 mM) and appropriate dilutions were made in water. The inhibition of ATX by BrP-LPA was measured employing 2 nM recombinant ATX, 50 μΜ LPC (14:0, 16:0, 18:0) and 0.01 to 100 μmol/L of BrP-LPA (final concentrations). The in vitro inhibition of ATX by BrP-LPA was evaluated with three different assays (FS-3, Amplex Red, and TOOS). […] BrP-LPA was also tested for its ability to inhibit mouse plasma ATX activity. Diluted mouse plasma was used as the source of ATX and the analysis of inhibition was made with TOOS as the in vitro inhibition assay.
The inhibition model (competitive, noncompetitive, or mixed type inhibition) was evaluated by graphical analysis with Lineweaver–Burk double reciprocal plots (1/[velocity] versus 1/[substrate]) and Cornish-Bowden plot ([substrate]/[velocity] versus [Inhibitor]). These plots were generated by the measurement of ATX activity in the presence of different BrP-LPA concentrations (0–10 μΜ) and increased amounts of 16:0 LPC (100, 200, 400 μΜ). The inhibition constants (Ki) and IC50 values were determined using the mean values obtained from two independent experiments. The relative remaining ATX activity or LPA levels in the presence of the BrP-LPA was expressed as a percentage of the corresponding control value (ATX activity, LPA levels without inhibitor). The IC50 value was determined graphically by plotting the log concentration of BrP-LPA versus relative remaining ATX activity or LPA levels of each test sample using the sigmoid dose–response fitting method (Prism® software). The IC50 (concentration of BrP-LPA sufficient to inhibit ATX activity or diminish LPA levels by 50%) was calculated by the equation f = y0+a/(1+exp(-(x-x0)/b)) given by SigmaPlot 11.0 (Systat Software, Inc., San Jose, CA, USA).
Ki was calculated using the equation of Cheng and Prusoff: Ki = IC50/1+[S]/Km, where Ki is the binding affinity of the inhibitor, IC50 is the functional strength of the inhibitor, [S] is substrate concentration and Km is the concentration of substrate at which enzyme activity is half maximal. Whereas the IC50 value for a compound may vary between experiments depending on experimental conditions, Ki is an absolute value. […]

The target in series [2] is T1, recombinant ATX. The series is described as follows: TOOS activity assay, LPC hydrolysis by recombinant ATX. In kind it is biochemical. The settings on record: substrate Km, TOOS. As to the method: ATX/LysoPLD activity was assessed based on the amount of choline released from LPC with the use of TOOS (N-ethyl-N-(2-hydoroxy-3-sulfopropyl)-3-methylaniline) reagent. In this assay ATX-mediated LPC-liberated choline is oxidised by choline oxidase to betaine and hydrogen peroxide (H2O2). The latter in the presence of horseradish peroxidase reacts with TOOS and 4-aminoantipyrene (4-AAP) to form a pink quinoneimine dye measured at 555 nm.
Diluted plasma samples (100 fold dilution; final EDTA concentration 0.5 mM) or recombinant ATX protein (2 nM) were incubated with LPC in the presence of 100 mmol/l Tris–HCl/pH 9.0, 500 mmol/l NaCl, 5 mmol/l MgCl2, 5 mmol/l CaCl2, 60 μM CoCl2 and 0.05% Triton X-100 for 3 h at 37°C at a final volume of 100 μl. It should be noted that EDTA was used not only as an anticoagulant but also as an inhibitor of ATX activity ex vivo [46], in order to suppress artificial LPA production during blood withdrawal and plasma preparation; this is because the same samples were used in phospholipid measurements.
The liberated choline was detected by adding 100 μl of a color mix containing 4-AAP and TOOS (0.3 mM), horseradish peroxidase (5.3 UnitmL^−1) and choline oxidase (2 UnitmL^−1). Absorbance was measured at 555 nm and data were analyzed using the statistical software package Prism 4.0 (Graphpad Software Inc, La Jolla, CA, USA). For each sample and control the absorbance was plotted against time and the slope (da/min) for the linear (steady-state) portion of each reaction profile was calculated. Absorbance units were converted to nmol of choline/min/ml by comparison with a choline standard curve or by use of the extinction coefficient for the quinoneimine dye according to the following equation: [drawing 1] Where Vt* is the total volume of reaction in ml (0.2 ml); Vs* is the volume of sample in ml; e is the millimolar extinction coefficient of quinoneimine dye under the assay conditions (e = e = […]); and 1/2: Factor based on the fact that 1 mol of hydrogen peroxide produces 1/2 mol of quinoneimine dye.
as §1, §2
The inhibition model (competitive, noncompetitive, or mixed type inhibition) was evaluated by graphical analysis with Lineweaver–Burk double reciprocal plots (1/[velocity] versus 1/[substrate]) and Cornish-Bowden plot ([substrate]/[velocity] versus [Inhibitor]). These plots were generated by the measurement of ATX activity in the presence of different BrP-LPA concentrations (0–10 μΜ) and increased amounts of 16:0 LPC (100, 200, 400 μΜ). […]

On the set-up of series [3]: method as in PMID 22354754. As to conditions: cited from earlier work.
Series [4] has as its system K/BxN serum transfer RA model. Also noted: method as in PMID 18491295, PMID 22354754. The settings on record: cited from earlier work.
Series [5] concerns COX-2 expression from SFs. The arrangement: method as in PMID 18802115. As to conditions: cited from earlier work.
[6] abbreviates: recombinant ATX from Sinobiological Inc.

The Km is the substrate concentration at which the rate is half of its maximum. Turning to `CCCCCCCCCCCCCC(=O)OC[C@@H](O)COP(=O)([O-])OCC[N+](C)(C)C` [14:0 LPC, reference compound], on recombinant ATX [1], the Michaelis-Menten constant (Km) was 80 ± 9 µM.
With `CCCCCCCCCCCCCCCC(=O)OC[C@@H](O)COP(=O)([O-])OCC[N+](C)(C)C` [16:0 LPC, reference compound], the Km at recombinant ATX [2] (recombinant ATX from R&D) is 90 µM; on recombinant ATX [2] (setting [6]) it was 60 ± 11 µM.
For `CCCCCCCCCCCCCCCCCC(=O)OC[C@@H](O)COP(=O)([O-])OCC[N+](C)(C)C` [18:0 LPC, reference compound], the Km is 116 ± 13 µM on recombinant ATX [1], 114 µM at recombinant ATX [2] (recombinant ATX from R&D) and 82 ± 11 µM on recombinant ATX [2] (setting [6]).
In the case of `CCCCCCCC/C=C\CCCCCCCC(=O)OC[C@@H](O)COP(=O)([O-])OCC[N+](C)(C)C` [18:1 LPC, reference compound], at recombinant ATX [2] (setting [6]), the Km came out at 55 ± 10 µM.
As for `Cc1noc(-c2ccc(CSCCC(=O)O)cc2)c1NC(=O)OC(C)c1ccccc1Cl` (stereo not shown) [ki16425], in series [3], the half-life result is reported as “very short half-life”. Besides, in series [4], the arthritis severity result is “reduction of arthritis severity”. For the same compound, the “LPA-mediated COX-2 expression” value in series [5] is listed as “inhibit LPA-mediated COX-2 expression”.
